Results taken from patent publication US8557298B2, “Medicaments for chemotherapeutic treatment of disease” (Provectus Pharmatech, Inc., priority 1998, dated 2013).

Columns and labels:
various murine tumors = conditions: within 24 hours
[1] = Toxicology data (LD50), murine administration; type: in vivo; conditions: for LD50 p.o.: murine oral (p.o.) administration
[2] = Partition coefficient Kp (n-octanol / phosphate buffered saline); type: physicochemical; conditions: n-octanol vs phosphate buffered saline, PBS, pH = 7.4
Description: For example, to a first approximation, an agent's potential for tissue accumulation can be estimated based on the partition coefficient, Kp. This in vitro parameter is purported to have predictive value relating to in vivo agent delivery at the cellular level. […] Kp is determined by measuring the ratio of equilibrium concentrations of an agent in a lipophilic phase (n-octanol) contacted with an aqueous phase (phosphate buffered saline, PBS, pH=7.4).

[3] = test system: recurrent aggressive sarcoma tumor; assay: Intratumoral injection of 10% Rose Bengal into naturally-occurring sarcoma in a dog; type: in vivo
[4] = Tissue pharmacokinetics of Rose Bengal after intraperitoneal injection into tumor-bearing nude mice; type: in vivo
Description: Tissue samples (liver, abdominal wall, and tumor) were immediately obtained from the sacrificed mice, homogenized, centrifuged for 10 minutes at 1520×g, and the resulting supernatant collected and analyzed fluorimetrically. […] At the same time, persistent accumulation occurs in tumor tissue, with greater than 50% of maximum measured agent concentration maintained in such tissues for periods in excess of 24 hours.

[5] = test system: BNL/SV40 liver cell tumor; assay: Intratumoral/peritumoral injection of 10% Rose Bengal into BNL/SV40 liver cell tumors in nude mice; type: in vivo, nude mice
Staphylococcus aureus = type: cell-based
Description: The inventors tested this hypothesis by evaluating the chemotherapeutic properties of Rose Bengal and Erythrosin B on cultures of the bacterium Staphylococcus aureus. […] In both illustrations, test cultures were exposed to the indicated agents at the indicated concentrations for the indicated times; cytotoxicity was subsequently estimated by serial dilution (10×dilution per step) of the treated cell cultures into 96-well plates containing fresh culture media; these samples were then incubated under standard conditions. Viability (e.g., Logs of Growth) for each test culture was then estimated by counting the number of dilution steps resulting in positive cell growth. Cytotoxicity upon exposure to a particular agent is thereby estimated by the reduction in viability relative to unexposed (e.g., control) cultures.

[6] = Systemic administration of Rose Bengal to obese laboratory mice, tissue accumulation; type: in vivo; conditions: aqueous solution, i.p. or p.o.
Text: For example, Rose Bengal's relatively large partition coefficient is indicative of a preference for accumulation in lipophilic tissue, such as cutaneous lipocytes.

[7] = murine intravenous (i.v.) administration

SMILES | LD50 p.o. [1] | Partition coefficient, Kp [2] | LD50 i.v. [1, 7] [mg/kg] | Cytotoxic effect (reduction in viability, Logs of Growth) (Staphylococcus aureus) | other results
CC1(C)C(/C=C/C=C/C=C/C=C2\N(CCCCS(=O)(=O)O)c3ccc4ccccc4c3C2(C)C)=[N+](CCCCS(=O)(=O)[O-])c2ccc3ccccc3c21 [Indocyanine Green, reference compound] |  |  |  |  | Tumor retention after i.t. administration (various murine tumors): substantively migrates out of tumors; LD50 ([1]; mouse, in vivo, murine intravenous (i.v.) administration): 60 mg/kg
CC1=C(CCC(=O)O)c2cc3[nH]c(cc4nc(cc5[nH]c(cc1n2)c(C)c5C(C)O)C(C)=C4C(C)O)c(C)c3CCC(=O)O (stereo not drawn) [Porphyrin HpIX, reference compound] | >1,000 mg/kg | 1.5 |  |  | 
O=C([O-])c1c(Cl)c(Cl)c(Cl)c(Cl)c1-c1c2cc(Br)c(=O)c(Br)c-2oc2c(Br)c([O-])c(Br)cc12.[Na+].[Na+] [Phloxine B] | 310 mg/kg | 1.1 | 310 |  | 
O=C1OC2(c3cc(I)c(O)c(I)c3Oc3c2cc(I)c(O)c3I)c2c(Cl)c(Cl)c(Cl)c(Cl)c21 [Rose Bengal, 4,5,6,7-Tetrachloro-2′,4′,5′,7′-tetraiodofluorescein] | >1,000 mg/kg | 11.5 |  | marked chemotherapeutic response that is concentration dependent | Tumor response at follow-up examination ([3]; after 19 days): further measurable decrease in tumor size; Tumor response at follow-up examination ([3]; approximately 5 cc of 10% solution into approximately 20 cc tumor, after five days): measurable decrease in tumor density along with significant edema and apparent necrosis of large sections of the tumor; Side-effects in healthy tissue surrounding the tumor ([3]; intratumoral injection, dog): no significant side-effects; Time for concentrations in normal tissue (abdominal wall) and liver to diminish to unmeasurable levels ([4]; i.p., 50-100 μL of 0.5% Rose Bengal in saline, tumor-bearing nude mice): ≤ 24 h; Share of maximum measured agent concentration maintained in tumor tissue ([4]; tumor tissue, periods in excess of 24 hours after i.p. injection): greater than 50%; Effect on tumor growth ([5]; i.t. and p.t. injection of 10% Rose Bengal, over a period of several weeks): stasis, with no significant change in tumor volume; Time to clearance from normal tissue (tumor tissue remained stained) ([5]; mouse, in vivo): ≤ 7 days; Effect on normal tissue and adjacent tumor tissue ([5]; peritumoral injection alone): no significant effect on normal tissue, nor on the adjacent tumor tissue; Retention in normal tissue ([5]; peritumoral injection alone, after 24 hours): no detectable retention in normal tissue; Tissue accumulation after systemic administration [6]: highly selective accumulation of said agent in certain tissues
O.O=C([O-])c1ccccc1-c1c2cc(I)c(=O)c(I)c-2oc2c(I)c([O-])c(I)cc12.[Na+].[Na+] [Erythrosin B] | >1,000 mg/kg | 1.9 | 370 | no significant chemotherapeutic response | 
